Measurements as given in patent US3957779A, “Benzo-1,2,4-triazines” (Bayer Aktiengesellschaft, priority 1972, dated 1976).
≈ marks a conversion by molar mass, not a printed value.

Columns and labels:
[1] = system: Mycoplasma bovirhinis; experiment: MIC, series dilution test, PPLO-medium (Table 1); format: cell-based; details: 37°C, 18, 24 and 48 hours, read-out: Minimum inhibitory concentration (MIC)
Description: (§1) The mycoplasmae were tested in the series dilution test (PPLO-medium) at 37°C, with observations after 18, 24 and 48 hours.

[2] = system: Mycoplasma granularum; experiment: MIC, series dilution test, PPLO-medium (Table 1); format: cell-based; details: Acholeplasma granularum, 37°C, 18, 24 and 48 hours, read-out: Minimum inhibitory concentration (MIC)
Description: as §1

[3] = system: Mycoplasma gallisepticum; experiment: MIC, series dilution test, PPLO-medium (Table 1); format: cell-based; details: Mycoplasmoides gallisepticum, 37°C, 18, 24 and 48 hours, read-out: Minimum inhibitory concentration (MIC)
Description: as §1

[4] = system: Mycobacterium tuberculosis; experiment: MIC, series dilution test, Jenssen egg medium; format: cell-based; details: 37°C, read-out: minimum inhibitory concentration
Description: The compounds of Examples 12 and 13 show minimum inhibitory concentrations of 32 γ/ml of nutrient medium in the series dilution test, Jenssen egg medium, 37°C, against Mycobacterium tuberculosis.

[5] = system: Escherichia coli C165; experiment: In vivo ED50, intraperitoneal infection of white mice (Table 2); details: sc; Escherichia coli C165 i.p. infection; s.c. 15 minutes before infection; 50% survival at 24 hours
[6] = system: Klebsiella 8085; experiment: as above; details: sc; Klebsiella 8085 i.p. infection; s.c. 15 minutes before infection; 50% survival at 24 hours
[7] = system: Klebsiella 8085; experiment: MIC, plate test (Table 1); format: cell-based; details: 37°C, 24 hours, read-out: Minimum inhibitory concentration (MIC)
Description: (§2) The minimum inhibitory concentration (MIC) was determined in the plate test on a complete nutrient base of the following composition: 10 g of proteose-peptone, 10 g of veal infusion, 2 g of dextrose, 3 g of sodium chloride, 2 g of disodium phosphate, 1 g of sodium acetate, 0.01 g of adenine sulphate, 0.01 g of guanine hydrochloride, 0.01 g of uracil, 0.01 g. of xantin, 12 g of agar-agar and 1 liter of water.
(§3) The incubation temperature was 37°C and the incubation time was 24 hours.

[8] = system: Pseudomonas aeruginosa B; experiment: MIC, plate test (Table 1); format: cell-based; details: 37°C, 24 hours, read-out: Minimum inhibitory concentration (MIC)
Description: as §2, §3

[9] = system: Pseudomonas aeruginosa w; experiment: MIC, plate test (Table 1); format: cell-based; details: 37°C, 24 hours, read-out: Minimum inhibitory concentration (MIC)
Description: as §2, §3

[10] = system: Escherichia coli C165; experiment: MIC, plate test (Table 1); format: cell-based; details: 37°C, 24 hours, read-out: Minimum inhibitory concentration (MIC)
Description: as §2, §3

[11] = system: Escherichia coli A261; experiment: MIC, plate test (Table 1); format: cell-based; details: 37°C, 24 hours, read-out: Minimum inhibitory concentration (MIC)
Description: as §2, §3

[12] = system: Staphylococcus aureus 133; experiment: MIC, plate test (Table 1); format: cell-based; details: 37°C, 24 hours, read-out: Minimum inhibitory concentration (MIC)
Description: as §2, §3

[13] = system: Streptococcus pyogenes; experiment: MIC, plate test (Table 1); format: cell-based; details: with serum, 37°C, 24 hours, read-out: Minimum inhibitory concentration (MIC)
Description: as §2, §3

[14] = system: Salmonella species; experiment: MIC, plate test (Table 1); format: cell-based; details: 37°C, 24 hours, read-out: Minimum inhibitory concentration (MIC)
Description: as §2, §3

[15] = system: Klebsiella 63; experiment: MIC, plate test (Table 1); format: cell-based; details: 37°C, 24 hours, read-out: Minimum inhibitory concentration (MIC)
Description: as §2, §3

[16] = system: Proteus vulgaris 1017; experiment: MIC, plate test (Table 1); format: cell-based; details: 37°C, 24 hours, read-out: Minimum inhibitory concentration (MIC)
Description: as §2, §3

[17] = system: Staphylococcus aureus 133; experiment: Turbidity test in Mueller-Hinton nutrient solution; format: cell-based; details: 100 γ/ml, 24 hours, 37°C
[18] = system: Escherichia coli A 261; experiment: Turbidity test in Mueller-Hinton nutrient solution; format: cell-based; details: 100 γ/ml, 24 hours, 37°C
[19] = system: Bacteroides species; experiment: Turbidity test in Mueller-Hinton nutrient solution; format: cell-based; details: 100 γ/ml, 24 hours, 37°C
[20] = system: Pseudomonas aeruginosa B; experiment: Turbidity test in Mueller-Hinton nutrient solution; format: cell-based; details: 100 γ/ml, 24 hours, 37°C
[21] = system: Borrelia species; experiment: Turbidity test in Mueller-Hinton nutrient solution; format: cell-based; details: 100 γ/ml, 24 hours, 37°C
[22] = system: Escherichia coli C 165; experiment: Turbidity test in Mueller-Hinton nutrient solution; format: cell-based; details: 100 γ/ml, 24 hours, 37°C
[23] = system: Neisseria catarrhalis species; experiment: Turbidity test in Mueller-Hinton nutrient solution; format: cell-based; details: 100 γ/ml, 24 hours, 37°C
[24] = system: Corynebacterium pyogenes M; experiment: Turbidity test in Mueller-Hinton nutrient solution; format: cell-based; details: 100 γ/ml, 24 hours, 37°C
[25] = system: Clostridium tetani; format: cell-based; details: 100 γ/ml, 24 hours, 37°C
[26] = system: Enterobacter species; experiment: Turbidity test in Mueller-Hinton nutrient solution; format: cell-based; details: 100 γ/ml, 24 hours, 37°C
[27] = system: Proteus indole-negative, species; experiment: Turbidity test in Mueller-Hinton nutrient solution; format: cell-based; details: 100 γ/ml, 24 hours, 37°C
[28] = system: Brucella species; format: cell-based; details: 100 γ/ml, 24 hours, 37°C
[29] = system: Pasteurella pseudotuberculosis; format: cell-based; details: 100 γ/ml, 24 hours, 37°C
[30] = system: Klebsiella K 10; experiment: Turbidity test in Mueller-Hinton nutrient solution; format: cell-based; details: 100 γ/ml, 24 hours, 37°C
[31] = system: Aeromonas hydrophila species; experiment: Turbidity test in Mueller-Hinton nutrient solution; format: cell-based; details: 100 γ/ml, 24 hours, 37°C
[32] = system: Lactobacillus species; experiment: Turbidity test in Mueller-Hinton nutrient solution; format: cell-based; details: 100 γ/ml, 24 hours, 37°C
[33] = system: Clostridium botulinium; format: cell-based
[34] = system: Streptococcus pyogenes W; experiment: Turbidity test in Mueller-Hinton nutrient solution; format: cell-based; details: 100 γ/ml, 24 hours, 37°C
[35] = system: Haemophilus influenzae 281; experiment: Turbidity test in Mueller-Hinton nutrient solution; format: cell-based; details: 100 γ/ml, 24 hours, 37°C
[36] = system: Pseudomonas aeruginosa w; experiment: Turbidity test in Mueller-Hinton nutrient solution; format: cell-based; details: 100 γ/ml, 24 hours, 37°C
[37] = system: Serratia species; experiment: Turbidity test in Mueller-Hinton nutrient solution; format: cell-based; details: 100 γ/ml, 24 hours, 37°C
[38] = system: Klebsiella K 63; experiment: Turbidity test in Mueller-Hinton nutrient solution; format: cell-based; details: 100 γ/ml, 24 hours, 37°C
[39] = system: Diplococcus pneumoniae species; experiment: Turbidity test in Mueller-Hinton nutrient solution; format: cell-based; details: 100 γ/ml, 24 hours, 37°C
[40] = system: Proteus vulgaris 1017; experiment: Turbidity test in Mueller-Hinton nutrient solution; format: cell-based; details: 100 γ/ml, 24 hours, 37°C
[41] = system: Escherichia coli 14; experiment: Turbidity test in Mueller-Hinton nutrient solution; format: cell-based; details: 100 γ/ml, 24 hours, 37°C
[42] = system: Bordetella bronchiseptica; experiment: Turbidity test in Mueller-Hinton nutrient solution; format: cell-based; details: 100 γ/ml, 24 hours, 37°C
[43] = system: Proteus indole-positive, species; experiment: Turbidity test in Mueller-Hinton nutrient solution; format: cell-based; details: 100 γ/ml, 24 hours, 37°C
[44] = system: Corynebacterium diphtheriae gravis; experiment: Turbidity test in Mueller-Hinton nutrient solution; format: cell-based; details: 100 γ/ml, 24 hours, 37°C
[45] = system: Enterococcus species; experiment: Turbidity test in Mueller-Hinton nutrient solution; format: cell-based; details: 100 γ/ml, 24 hours, 37°C
[46] = system: Shigella species; experiment: Turbidity test in Mueller-Hinton nutrient solution; format: cell-based; details: 100 γ/ml, 24 hours, 37°C
Description: (§4) 100 γ/ml of the compounds according to the invention are dissolved in Mueller-Hinton nutrient solution, with addition of 0.1% of glucose. The nutrient solution contains […] microbes per ml. The mixture is incubated in glass test tubes for 24 hours at 37°C and after this time the degree of turbidity is determined.

[47] = system: Salmonella species; experiment: Turbidity test in Mueller-Hinton nutrient solution; format: cell-based; details: 100 γ/ml, 24 hours, 37°C
Description: as §4

`CNc1n[n+]([O-])c2ccccc2[n+]1[O-]` [Example 1, 3-(N-methylamino)-benzo-1,2,4-triazine-1,4-di-N-oxide] was tested, and the MIC [1] was 1 µg/mL (≈ 5.2 µM), the MIC [2] was 1 µg/mL (≈ 5.2 µM) and the MIC [3] was 1 µg/mL (≈ 5.2 µM). The MIC [4] was 32 µg/mL (≈ 167 µM), the ED50 [5] was 25 mg/kg and the ED50 [6] was 25 mg/kg. It also gave an MIC [7] of 8 µg/mL (≈ 41.6 µM), an MIC [8] of 8 µg/mL (≈ 41.6 µM) and an MIC [9] of 128 µg/mL (≈ 666 µM). The MIC [10] was 8 µg/mL (≈ 41.6 µM), the MIC [11] was 8 µg/mL (≈ 41.6 µM) and the MIC [12] was 8 µg/mL (≈ 41.6 µM). For the same molecule, the MIC [13] was 128 µg/mL (≈ 666 µM), the MIC [14] was 8 to 16 µg/mL (≈ 41.6 to 83.3 µM) and the MIC [15] was 128 µg/mL (≈ 666 µM). The MIC [16] was 128 µg/mL (≈ 666 µM).

For `O=C(CCl)Nc1n[n+]([O-])c2ccccc2[n+]1[O-]` [Example 9, 3-(N-chloroacetylamino)-benzo-1,2,4-triazine-1,4-di-N-oxide], the ED50 [6] was 25 mg/kg.

`NC(=O)Nc1n[n+]([O-])c2ccccc2[n+]1[O-]` [Example 13, 1,4-dioxo-benzo-1,2,4-triazin-3-yl-urea] was tested, and the turbidity after incubation [17] was “remained free of turbidity”, the turbidity after incubation [18] was “remained free of turbidity” and the turbidity after incubation [19] was “remained free of turbidity”. For the same molecule, the turbidity after incubation [20] was “remained free of turbidity”, the turbidity after incubation [21] was “remained free of turbidity” and the turbidity after incubation [22] was “remained free of turbidity”. The turbidity after incubation [23] was “remained free of turbidity”, the turbidity after incubation [24] was “remained free of turbidity” and the turbidity after incubation [25] was “remained free of turbidity”. For the same molecule, the turbidity after incubation [26] was “remained free of turbidity”, the turbidity after incubation [27] was “remained free of turbidity” and the turbidity after incubation [28] was “remained free of turbidity”. For the same molecule, the turbidity after incubation [29] was “remained free of turbidity”, the turbidity after incubation [30] was “remained free of turbidity” and the turbidity after incubation [31] was “remained free of turbidity”. The turbidity after incubation [32] was “remained free of turbidity”, the turbidity after incubation [33] was “remained free of turbidity” and the turbidity after incubation [34] was “remained free of turbidity”. The turbidity after incubation [35] was “remained free of turbidity”, the turbidity after incubation [36] was “remained free of turbidity” and the turbidity after incubation [37] was “remained free of turbidity”. For the same molecule, the turbidity after incubation [38] was “remained free of turbidity”, the MIC [4] was 32 µg/mL (≈ 145 µM) and the turbidity after incubation [39] was “remained free of turbidity”. The turbidity after incubation [40] was “remained free of turbidity”, the turbidity after incubation [41] was “remained free of turbidity” and the turbidity after incubation [42] was “remained free of turbidity”. The turbidity after incubation [43] was “remained free of turbidity”, the turbidity after incubation [44] was “remained free of turbidity” and the turbidity after incubation [45] was “remained free of turbidity”. The turbidity after incubation [46] was “remained free of turbidity” and the turbidity after incubation [47] was “remained free of turbidity”.
